Earlier results on two compounds are cited in US10092573B2, “Gastric and colonic formulations and methods for making and using them” (Salix Pharmaceuticals, Inc., priority 2010, dated 2018).

Test in data set [1]: not given
The source holds these as a separate data set.

“Also recorded” adds a separate entry of the source. Like-named read-outs stand apart in the source and are kept apart here.

For the compound `CC(=O)Oc1ccc(C(c2ccc(OC(C)=O)cc2)c2ccccn2)cc1` [Bisacodyl, 4,4′-(pyridin-2-ylmethylene) bis(4,1-phenylene) diacetate], the “association with ischemic colitis” value (10 mg tablet form in combination with HALFLYTELY) is reported as “less frequently” and the “association with ischemic colitis” value (doses of 20 mg) was “on rare occasions”. Moreover, the ischemic colitis result (widespread chronic use at a lower dosage range, often daily, for constipation or bloating) is “No ischemic colitis has been consistently observed or reported”.

As to `OC[C@@H](O)[C@@H](O)CO` [Erythritol, (2R,3S)-butane-1,2,3,4-tetraol], the “effect on creatinine, urea or electrolytes (sodium, potassium, chloride, phosphate) output” value in data set [1] (24 hour output, renal) is on record as “no effect; also recorded: does not influence”. The “doses with no recorded significant human gastroenterological side effects” value in data set [1] (human) was “up to 1000 mg/kg body weight/day”. In addition, in data set [1] (in vivo), the “carcinogenic, mutagenic or teratogenic potential” value was “does not have any”; the “share of the ingested erythritol that enters the colon” value is on record as “about 10%”; the “systemic metabolism and excretion of absorbed erythritol” value is “not metabolized systemically and is excreted unchanged in urine”; the “toxicological effects in safety studies” value is reported as “no toxicological effects”.
